According to ChEMBL document CHEMBL2440076, “New triarylpyrazoles as broad-spectrum anticancer agents: design, synthesis, and biological evaluation” (Eur J Med Chem, 2013):

Legend:
Assay type in all cases: functional
SK-MEL-2 = assay: Growth inhibition of human SK-MEL-2 cells assessed as cell growth at 10 uM after 48 hrs by sulforhodamine B assay; conditions: SK-MEL-2, 48 h, read-out: Activity
HCT-15 = assay: Growth inhibition of human HCT15 cells assessed as cell growth at 10 uM after 48 hrs by sulforhodamine B assay; conditions: HCT-15, 48 h, read-out: Activity
M14 = assay: Growth inhibition of human M14 cells assessed as cell growth at 10 uM after 48 hrs by sulforhodamine B assay; conditions: M14, 48 h, read-out: Activity
SK-MEL-28 = assay: Growth inhibition of human SK-MEL-28 cells assessed as cell growth at 10 uM after 48 hrs by sulforhodamine B assay; conditions: SK-MEL-28, 48 h, read-out: Activity
TK-10 = assay: Growth inhibition of human TK10 cells assessed as cell growth at 10 uM after 48 hrs by sulforhodamine B assay; conditions: TK-10, 48 h, read-out: Activity
OVCAR-4 = assay: Growth inhibition of human OVCAR4 cells assessed as cell growth at 10 uM after 48 hrs by sulforhodamine B assay; conditions: OVCAR-4, 48 h, read-out: Activity
SW-620 = assay: Growth inhibition of human SW620 cells assessed as cell growth at 10 uM after 48 hrs by sulforhodamine B assay; conditions: SW-620, 48 h, read-out: Activity
ACHN = assay: Growth inhibition of human ACHN cells assessed as cell growth at 10 uM after 48 hrs by sulforhodamine B assay; conditions: read-out: Activity
[1] = Growth inhibition of human Hs 578T cells assessed as cell growth at 10 uM after 48 hrs by sulforhodamine B assay; conditions: read-out: Activity
DU-145 = assay: Growth inhibition of human DU145 cells assessed as cell growth at 10 uM after 48 hrs by sulforhodamine B assay; conditions: DU-145, 48 h, read-out: Activity
SNB-19 = assay: Growth inhibition of human SNB19 cells assessed as cell growth at 10 uM after 48 hrs by sulforhodamine B assay; conditions: SNB-19, 48 h, read-out: Activity
KM12 = assay: Growth inhibition of human KM12 cells assessed as cell growth at 10 uM after 48 hrs by sulforhodamine B assay; conditions: KM12, 48 h, read-out: Activity
[2] = Growth inhibition of human HCC2998 cells assessed as cell growth at 10 uM after 48 hrs by sulforhodamine B assay; conditions: HCC 2998, 48 h, read-out: Activity
786-0 = assay: Growth inhibition of human 786-0 cells assessed as cell growth at 10 uM after 48 hrs by sulforhodamine B assay; conditions: 786-0, 48 h, read-out: Activity
OVCAR-3 = assay: Growth inhibition of human OVCAR3 cells assessed as cell growth at 10 uM after 48 hrs by sulforhodamine B assay; conditions: OVCAR-3, 48 h, read-out: Activity
A549 = assay: Growth inhibition of human A549/ATCC cells assessed as cell growth at 10 uM after 48 hrs by sulforhodamine B assay; conditions: A549, 48 h, read-out: Activity
HT-29 = assay: Growth inhibition of human HT-29 cells assessed as cell growth at 10 uM after 48 hrs by sulforhodamine B assay; conditions: HT-29, 48 h, read-out: Activity

`COc1cc(-c2nn(-c3cccc(NC(=O)Nc4ccccc4)c3)cc2-c2ccncc2)ccc1Cl` showed a growth at 10 µM (SK-MEL-2) of 77%, a growth at 10 µM (HCT-15) of 84.5% and a growth at 10 µM (M14) of 85.7%. For the same compound, the growth at 10 µM (SK-MEL-28) was 86.3%, the growth at 10 µM (TK-10) was 116% and the growth at 10 µM (OVCAR-4) was 90.5%. It also gave a growth at 10 µM (SW-620) of 82.8%, a growth at 10 µM (ACHN) of 78.2% and a growth at 10 µM [1] of 82.7%. For the same compound, the growth at 10 µM (DU-145) was 101%, the growth at 10 µM (SNB-19) was 89.5% and the growth at 10 µM (KM12) was 73.7%. For the same compound, the growth at 10 µM [2] was 119%, the growth at 10 µM (786-0) was 93.1% and the growth at 10 µM (OVCAR-3) was 86.4%. For the same compound, the growth at 10 µM (A549) was 79.3% and the growth at 10 µM (HT-29) was 84%.
